Measurements reported in US20050191348A1 (priority 2004, published 2005).
Marks after values point to notes of the source that are not given here.

How the values were obtained:
sAPPα = sAPPα release into medium of SH-SY5Y neuroblastoma cells; format: cell-based, human; conditions: 3 h; for sAPPα secretion (fold/basal): 1 μM, SH-SY5Y conditioned media, mean ± SE of three experiments
Procedure: For the experiments, cells were seeded (2×10^6) onto 100-mm plates (for SH-SY5Y cells) or T75 flasks (for PC12 cells) in culture medium supplemented with full serum for 48 h. The cells were replaced with fresh medium containing 0.5% FCS for an additional 24 h (subconfluent culture), and then the experiments were performed in fresh medium containing 0.5% FCS for the indicated time periods at 37° C. After incubation with various drugs, the conditioned media were collected, centrifuged at 3500 g (10 min, 4° C.) to remove cell debris, and the cleared supernatants were concentrated 10-fold by lyophilization.
(vii) Determination of sAPP. Protein concentrations of cell lysates were assayed using Bradford reagent (Sigma Chemical). Equal amounts of volumes of conditioned medium, standardized to lysate protein, were subjected to […], using either the MAbs 22C11 or 6E10 in 50 mM Tris-HCl, pH 7.4, 150 mM NaCl, containing 0.05% Tween 20 and 1% BSA. Immunoreactivity was detected using anti-mouse IgG-conjugated with HRP and an enhanced chemiluminescence method (Amersham, Pharmacia Biotech, UK). Blots were developed for different times to span a linear range of response, and the relative intensity of immunoreactive bands on the exposed films was quantified by computer-assisted densitometry program (Quantity One, Bio-Rad, Hercules, Calif., USA).
It was of interest to determine whether rasagiline and other propargylamine-containing drugs also regulate APP processing. For this purpose, SH-SY5Y neuroblastoma cells were incubated for 3 h without or with 1 μM of various drugs (TV3326 and its S-isomer TV3279, rasagiline and its S-isomer TVP1022, selegiline, aminoindan), and sAPPα was measured in the media as described in Materials and Methods.
We further characterized, in detail, the effect of rasagiline on APP processing and the signaling pathways that are involved. Thus, SH-SY5Y neuroblastoma cells were incubated for 3 h without or with increasing concentrations of rasagiline (0.1, 1 and 10 μM), and sAPPα was measured in the media as described in Materials and Methods.
For the sAPPα release, SH-SY5Y neuroblastoma cells or PC12 cells were incubated for 3 h without or with increasing concentrations of propargylamine (0.1, 1 and 10 μM), and sAPPα was measured in the media as described in Materials and Methods.

MAPK = MAPK activation (phospho-p44/42 MAPK immunoblot) in PC12 cells; format: cell-based, rat
Procedure: (viii) Extracellular signal-regulated kinase (ERK) activity. The kinase activity of the ERKs was measured using the MAPK assay kit (Cell Signaling Technology) according to the manufacturer's protocol. In brief, for kinase activity assays, PC12 cells were grown in 6-well plates (5×10^5 cells/well). Eighteen to twenty-four hours before experiments, the medium was replaced with DMEM with 0.5% FCS and treated as described in the figures. Experimental treatments were performed in 1 ml medium containing 0.5% FCS, with the vehicle or test drugs and/or inhibitors at 37° C., as described in the figures. After treatment, reactions were stopped by placing cells on ice and aspirating the medium. Cells were harvested in 50 mM Tris-HCl, pH 8.0, 150 mM NaCl, 5 mM EDTA, 1 mM DTT, 1% Triton X-100, and protease- and phosphatase-inhibitor cocktails. Protein concentration was determined by the Bradford method. As described previously (Yogev-Falach et al., 2002), each cell lysate, containing 30 μg protein, was separated on 4-12% SDS-polyacrylamide electrophoresis gels, immunoblotted, and identified using phospho-p44/42 MAPK (Thr202/Tyr204) antibody or p44/42 MAPK antibody. Data are representative of three to six independent experiments.
To study the effect of rasagiline on MAPK activation, PC12 cells were treated for 0.5 h with increasing concentrations of rasagiline (0.1, 1 and 10 μM), and quantification of the phospho-MAPK blots were normalized using the total MAPK blots, or PC12 cells were preincubated for 15 min with vehicle alone, or with PD98059 (30 μM) or GF109203X (2.5 μM) and then incubated without or with rasagiline (10 μM) for 0.5 h. Aliquots of cell lysates were then subjected to immunoblot analysis and probed with anti-phospho-MAPK (top blots) and anti-MAPK (bottom blots).
For the effect of propargylamine on MAPK activation, PC12 cells were treated for 0.5 h with increasing concentrations of propargylamine (0.1, 1 and 10 μM). Aliquots of cell lysates were then subjected to immunoblot analysis and probed with anti-phospho-MAPK and anti-MAP kinase. Quantification of the phospho-MAPK were normalized using the total MAPK blots.

PKC = PKC phosphorylation in PC12 cell lysates, Western blot with p-PKC (pan) antibody; format: cell-based, rat; conditions: PC12, pre-treatment 2.5 μM
Procedure: (iv) Immunoblot Analyses. For Western blot analyses, attached cells were washed once in cold PBS and then lysed in 1× nonreducing Laemmli buffer followed by boiling for 3-5 min. Protein content was determined using the Bradford method. Equal amounts of protein were separated by SDS-polyacrylamide gel electrophoresis and blotted onto polyvinylidene difluoride (PVDF) membranes (Millipore). Membranes were treated with blocking buffer (5% dry milk in PBS or 5% dry milk, 0.05% Tween 20 (Sigma) in TBS). Primary antibodies were diluted in PBS or in TBS containing 5% BSA, 0.05% Tween 20 and incubated with membranes for 20 h at 4° C., followed by incubation (1 h at room temperature) in dilutions of horseradish peroxidase (HRP)-conjugated secondary antibodies in the same buffers. Following antibody incubations, membranes were washed in 0.5% Tween 20 in PBS or TBS. Detection was achieved using ECL™ Western Blotting Detection Reagent (Amersham, Pharmacia, Little Chalfort Buckinghamshire, UK). Quantification of results was accomplished by measuring the optical density of the labeled bands from the autoradiograms by scanning laser densitometry using the computerized imaging program Bio-ID (Imager, Bio1D software; Vilber Lourmat, Marne La Vallee, France). The values were normalized to β-actin intensity levels.
Since activation of PKC has been shown previously to modulate cell viability, resulting in protection of neuronal cells, it was of interest to investigate the effects of rasagiline on PKC activation. In one experiment, PC12 cells were untreated or treated with various concentrations of rasagiline (0.1, 1 and 10 μM) for 1 hour. […] Phosphorylation of PKC was analyzed in cell lysates by Western blotting and detected with p-PKC (pan) antibody.
The effect of propargylamine on PKC phosphorylation/activation was investigated as described in Example 2 above.

caspase-3, BAD = assay: Serum free-induced caspase-3 cleavage and BAD levels (rasagiline, data not shown); format: cell-based
[1] = tested on: p-PKC (pan), PKCα and PKCε; assay: PKC translocation to membrane fraction of PC12 cells; format: cell-based, rat; conditions: PC12, 100 nM, 2 h
Procedure: (v) PKC translocation. Cells were cultured to confluence and treated for 2 h with either no drug (control), phorbol 12-myristate-13-acetate (PMA) (positive control) or rasagiline. After washing, the cells were harvested, collected by centrifugation (5 min, 1500 rpm), and homogenized by sonication (12 s, 22μ) in homogenization buffer (20 mM Tris-HCl, pH 7.4, 0.32 M sucrose, 2 mM EDTA, 50 mM β-mercaptoethanol) containing a protease inhibitor cocktail (Sigma Aldrich, Sweden). Cytosolic and particulate fractions were separated by ultracentrifugation (30 min, 100,000 g, 4° C.). For the particulate fraction, proteins were extracted by a 45 min incubation on ice in homogenization buffer containing 0.5% Triton X-100. Samples were then sonicated for 1 min and equivalent amounts of protein (15 μg) separated by PAGE followed by blotting onto nitrocellulose paper. Western blotting was performed essentially as described above using antibodies against p-PKC (pan), PKCα and PKCε.
PKC translocation to the membrane fraction upon activation and membrane localization is often used as a marker for PKC activation.

[2] = tested on: Bcl-2 family and PKC isoform mRNA; assay: Gene expression by quantitative real-time RT-PCR in serum-free PC12 cells; format: cell-based, rat
Procedure: (vi) Total RNA extraction. PC12 cells were cultured in DMEM containing 5% FCS and 10% horse serum until confluence. At the day of the experiment, the medium was replaced with fresh medium without serum and rasagiline or propargylamine at various concentrations were administered for 24 h. At the end of incubation, the medium was removed and isolation of total RNA was performed, using Tri Reagent™ Isolation reagent. Total RNA was treated with DNase-RNase free (Roche Diagnostics, Mannheim, Germany) for 30 min at 37° C. and subsequently extracted by a round of phenol:chlorophorm:isoamylalcohol (25:24:1), followed by one of chloroform. After precipitation with NaOAc (0.3 M) and ethyl alcohol, the RNA pellet was washed with 80% ethyl alcohol (12,000×g) for 10 min and resuspended in 50-100 μl of diethylpyrocarbonate (DEPC)-treated water and incubated for 5-10 min at 56° C. to facilitate resuspension.
(vi) Reverse transcription (RT) and quantitative real-time RT-PCR. In order to confirm the results obtained with the customized cDNA expression micro-array, 2 μg of total RNA were denatured and reverse transcribed using random hexanucleotides (0.5 μg/μl). Secondary structures of the template and primer (total volume of 16 μl) were opened by incubation for 5 min at 70° C. and immediately cooled on ice. Reaction mix (9 μl) containing reaction buffer, dNTP (0.5 mm each), RNAasin™ RNAase inhibitor (Promega) (25U) and M-MLV reverse transcriptase (200U) was added and samples were incubated at 39° C. for 1 h. For every RNA preparation a negative control was run in parallel consisting of a direct amplification of the RNA sample, omitting the RT step. The samples were transferred to 92° C. for 10 min, in order to deactivate the enzyme, and then cooled to 4° C.
Quantitative real-time PCR, using LightCycler and FastStart DNA Master SYBR Green I ready-to use PCR mix, was performed according to the manufacture's protocol (Roche Diagnostics, Mannheim, Germany). cDNA (40 ng) was amplified in 20 μl total volume. The sequences of the primers and the size of the products are described in Table 1. The results are analyzed on the provided program of the LightCycler. The relative expression level of a given mRNA was assessed by normalizing to the housekeeping gene 18S-rRNA and compared with control values.
In this experiment, we examined whether Bcl-2 family proteins mediate the pro-survival effect of rasagiline, using serum-starved rat pheochromocytoma PC12 cell line as a model of neuronal apoptosis. PC12 cells were maintained in full-serum (control), or in serum-free (SF) media in the absence or presence of various concentrations of rasagiline (0.001, 0.1, 1 and 10 μM) for 3 h or 24 h, and gene expression was measured by quantitative real-time RT-PC. The real-time RT-PCR consists of RNA samples isolated from said PC-12 cells. Each gene expression was normalized to the housekeeping gene, 18S-rRNA, since this transcript was reported to be less susceptible to the influence by external factors.
The effect of propargylamine on Bad and Bax mRNA levels was examined as described in Example 5 above.

PC12 cells = conditions: PC12, 10 μM, 24 h

Molecule: NC1CCc2ccccc21 (centres unmarked) [Aminoindan, aminoindan]
- sAPPα secretion (fold/basal) (sAPPα): 1.23 ± 0.32 fold/basal
- sAPPα released into the medium (sAPPα; SH-SY5Y, 0.1, 1 and 10 μM, versus untreated cells): did not show such effects
- MAPK phosphorylation (MAPK; PC12, 0.1, 1 and 10 μM, 0.5 h): did not show such effects

Molecule: CN(C)CCCn1cc(C2=C(c3c[nH]c4ccccc34)C(=O)NC2=O)c2ccccc21 [GF109203X]
- effect on propargylamine-induced PKC phosphorylation (PKC; propargylamine 1 μM 1 h): blocked the effect of propargylamine on PKC phosphorylation
- effect on rasagiline-induced PKC phosphorylation (PKC; rasagiline 1 μM 1 h): significantly reduced rasagiline-induced PKC phosphorylation
- effect on rasagiline-induced MAPK activation (MAPK; PC12, preincubation 2.5 μM, rasagiline 10 μM 0.5 h): abolished the effect of rasagiline on MAPK activation
- effect on rasagiline-induced decrease of BAD (caspase-3, BAD): blocked
- effect on rasagiline suppression of caspase-3 cleavage (caspase-3, BAD; data not shown): reversed

Molecule: COc1cccc(-c2cc(=O)c3ccccc3o2)c1N [PD98059]
- effect on rasagiline-induced MAPK phosphorylation (MAPK; PC12, pretreatment 30 μM, rasagiline 10 μM 0.5 h): blocked the rasagiline-induced increase of MAPK phosphorylation

Molecule: CCCCCCCCCCCCCC(=O)O[C@@H]1[C@@H](C)[C@@]2(O)[C@@H](C=C(CO)C[C@]3(O)C(=O)C(C)=C[C@@H]23)[C@@H]2C(C)(C)[C@]12OC(C)=O [PMA, phorbol 12-myristate-13-acetate]
- translocation of PKCα [1]: 157%
- translocation of PKCε [1]: 212%
- translocation of p-PKC (pan) [1]: 214%

Molecule: C#CCN[C@@H]1CCc2ccccc21 [Rasagiline, N-propargyl-(1R)-aminoindan]
- Bad mRNA reduction ([2]; 1 μM, 3 h): 1.35 fold vs. serum free treatment
- Bcl-xL mRNA expression increase ([2]; 10 μM, 24 h, compared to serum-free culture): about 2 fold
- Bad mRNA reduction ([2]; 0.01 and 0.1 μM, 24 h): ~2.5 fold vs. serum free culture
- Bcl-W mRNA expression ([2]; 0.1, 1 and 10 μM, 24 h): 135 % of serum-free culture
- sAPPα secretion (fold/basal) (sAPPα): 2.97 ± 0.15^b fold/basal
- increase in sAPPα secretion over the basal levels (sAPPα; SH-SY5Y, 10 μM (maximal effect)): ~3.0 fold
- lowest dose giving MAPK activation (MAPK; PC12, 0.5 h): 0.1 µM

Molecule: C#CCN(C)[C@H](C)Cc1ccccc1 [Selegiline, R-(−)-N-methyl-N-(prop-2-ynyl)-2-aminophenylpropane]
- sAPPα secretion (fold/basal) (sAPPα): 2.03 ± 0.21^c fold/basal

Molecule: C#CCN[C@H]1CCc2ccc(OC(=O)N(C)CC)cc21 [TV3279]
- sAPPα secretion (fold/basal) (sAPPα): 2.76 ± 0.36^b fold/basal

Molecule: C#CCN[C@@H]1CCc2ccc(OC(=O)N(C)CC)cc21 [TV3326, (N-propargyl-(3R)aminoindan-5yl)-ethyl methyl carbamate]
- sAPPα secretion (fold/basal) (sAPPα): 2.86 ± 0.35^b fold/basal

Molecule: Aβ1-42: amyloidogenic Aβ peptide, used as toxic insult
- cell viability (PC12 cells): 66 % of control
